For this assay, the system named is Tumorart P 388 (Leukämie). Nature of the assay: Survival of mice bearing P 388 leukemia (NCI protocol 1200), T/C. Type of assay: in vivo, Maus. Particulars: for T/C-Wert: unit not given. An excerpt: Die nachfolgenden Versuche wurden durchgeführt nach Testvorschriften des National Cancer Institute Bethesda, Maryland 200014, veröffentlicht in Cancer Chemotherapy Reports" Part. 3, September 1972, Vol. 3, Nr. 2. Als Wirksubstanz wurde 1,3-Diglycidyl-benzimidazolon des i vorstehenden Beispiels 1 verwendet. Die Substanz wurde als wäßrige, 1%ige Injektionslösung unmittelbar vor der Applikation frisch hergestellt.
Bei Mäusen wurde gemäß Protokoll 1200 (Seite 91, c.) die Tumorart P 388 (Leukämie) i.p. mit 10^6 Zellen/Maus gesetzt. Die unbehandelten Tiere hatten eine mittlere überlebensdauer von 9,9 Tagen.
Es wird der Wirkstoff appliziert. Der Wirkstoff wird dabei in 9.Gaben in unterschiedlichen Versuchsreihen einmal zu je 200 mg/kg und in einer anderen zu 100 mg/kg und in einer dritten Versuchsreihe zu je 50 mg/kg verabreicht. In beiden Fällen wird eine signifikante Verlängerung der Lebensdauer der behandelten Testtiere gegenüber der Kontrollgruppe der nicht behandelten Tiere erzielt. […] Bei der Testgruppe mit der Dosis von 100 mg/kg beträgt die durchschnittliche Lebenserwartung der Versuchstiere 18 Tage, T/C 181 %. Die Gruppe mit der Dosis 50 mg/kg hatte eine durchschnittliche Lebenserwartung von 15,3 Tagen, T/C 154 %. […]

Setting [1] is: 50 mg/kg per single dose, 9 doses.
[2] abbreviates: 100 mg/kg per single dose, 9 doses.
Setting [3] is: 50 mg/kg per single dose, 9 doses, first test series.
Setting [4] is: 100 mg/kg per single dose, 9 doses, first test series.
The mark [5] stands for this setting: 200 mg/kg per single dose, 9 doses, first test series.
Setting [6] is: Mus musculus, P388, 50 mg/kg per single dose, first series, unit inferred, read-out: Testergebnis T/C (T/C-Wert).
The mark [7] stands for this setting: Mus musculus, P388, 100 mg/kg per single dose, first series, unit inferred, read-out: Testergebnis T/C (T/C-Wert).

Where two headings read alike, the source gives them in different places.

Take `CCC1(CC)C(=O)N(CC2CO2)C(=O)N(CC2CO2)C1=O` (stereo not shown) [Beispiel 10, 1,3-Diglycidyl-5,5-diethylbarbitursäure]: the “durchschnittliche Lebenserwartung der Versuchstiere” value is, setting by setting: under setting [1], 15,3 Tage; under setting [2], 22 Tage. In addition, the response vs control in vivo at 25 mg/kg (Mus musculus, P388, read-out: Testergebnis T/C (T/C-Wert), 25 mg/kg, second series, unit inferred) is 94%. Further, the response vs control in vivo at 50 mg/kg came out at 147% (Mus musculus, P388, read-out: Testergebnis T/C (T/C-Wert), 50 mg/kg per single dose, first series, unit inferred); 111% (Mus musculus, P388, read-out: Testergebnis T/C (T/C-Wert), 50 mg/kg, second series, unit inferred); 147% (Mus musculus, P388, read-out: Verlängerungsrate T/C (Testergebnis in % T/C), 50 mg/kg per single dose, 9 doses, first test series). Moreover, the response vs control in vivo at 100 mg/kg is, setting by setting: (Mus musculus, P388, read-out: Testergebnis T/C (T/C-Wert), 100 mg/kg per single dose, first series, unit inferred) 211%; (Mus musculus, P388, read-out: Testergebnis T/C (T/C-Wert), 100 mg/kg, second series, unit inferred) 158%; (Mus musculus, P388, read-out: Verlängerungsrate T/C (Testergebnis in % T/C), 100 mg/kg per single dose, 9 doses, first test series) 211%. Besides, the response vs control in vivo at 200 mg/kg (Mus musculus, P388, read-out: Testergebnis T/C (T/C-Wert), 200 mg/kg, second series, unit inferred) came to 230%.

Diglycidyl-butylglykoluril [Beispiel 4]: the “durchschnittliche Lebenserwartung der Versuchstiere” value is 16,3 Tage under setting [1] and 19,3 Tage under setting [2]. For the same molecule, the “Verlängerungsrate T/C (Testergebnis in % T/C)” value is 164% under setting [3], 194% under setting [4] and 272% under setting [5]. Further, under “200 mg/kg per single dose, 9 doses”, the “durchschnittliche Lebensdauer der Testgruppe” value was 27 Tage. Further, under “200 mg/kg per single dose, test group of 6 female mice”, the “Versuchstiere, die die Testdauer von 30 Tagen überleben” value is “ein Versuchstier”.

`O=c1n(CC2CO2)c(=O)n(CC2CO2)n1CC1CO1` (stereo not shown) [Beispiel 26, 1,2,4-Triglycidylurazol]: the T/C-Wert runs as follows: (25 mg/kg per single dose) over 260; (6,25 mg/kg per single dose) 180; (12,5 mg/kg per single dose) 230. Besides, the response vs control in vivo at 50 mg/kg under setting [6] turned out to be 298%.

`O=c1n(-c2ccccc2)c(=O)n(CC2CO2)n1CC1CO1` (stereo not shown) [Beispiel 27, 1,2-Diglycidyl-4-phenylurazol]: the T/C-Wert (25 mg/kg per single dose) was determined as 120. In addition, under setting [6], the response vs control in vivo at 50 mg/kg was found to be 120%. Under setting [7], the response vs control in vivo at 100 mg/kg worked out at 150%. Besides, for the setting “Mus musculus, P388, 200 mg/kg per single dose, first series, unit inferred, read-out: Testergebnis T/C (T/C-Wert)”, the response vs control in vivo at 200 mg/kg was 200%.

As for `CCCCCC(=O)c1ccc2c(c1)n(CC1CO1)c(=O)n2CC1CO1` (stereo not shown) [R2 -H R3 -C-C5H11 " O, N,N-Diglycidyl-5-caproyl-benzimidazolon], the response vs control in vivo at 50 mg/kg (Mus musculus, P388, 50 mg/kg per single dose, 9 doses, first test series, read-out: Verlängerungsrate T/C (Testergebnis in % T/C)) was found to be 167%. Also, the response vs control in vivo at 100 mg/kg (Mus musculus, P388, 100 mg/kg per single dose, 9 doses, first test series, read-out: Verlängerungsrate T/C (Testergebnis in % T/C)) was 198%. Besides, under “Mus musculus, P388, 200 mg/kg per single dose, 9 doses, first test series, read-out: Verlängerungsrate T/C (Testergebnis in % T/C)”, the response vs control in vivo at 200 mg/kg is 130%.

Turning to `CN1C(=O)N(CC2CO2)C2C1N(CC1CO1)C(=O)N2C` (stereo not shown) [Beispiel 5, 3,6 Diglycidyl-1,4-dimethylglykoluril], the “Verlängerungsrate T/C (Testergebnis in % T/C)” value runs as follows: under setting [3], 134%; under setting [4], 157%; under setting [5], 190%. Further, under setting [2], the “durchschnittliche Lebenserwartung der Versuchstiere” value is reported as 15,8 Tage.

`O=c1cnn(CC2CO2)c(=O)n1CC1CO1` (stereo not shown) [Beispiel 20, 2,4-Diglycidyl-2,3,4,5-tetrahydro-1,2,4-triazin-3,5-dion]: the response vs control in vivo at 50 mg/kg under setting [6] worked out at 189%. Besides, the response vs control in vivo at 100 mg/kg under setting [7] was 228%.

The values are drawn from patent EP0033503A2, “Medicaments with cytostatic activity and use of cyclic compounds, in which the heterocyclic N-ring atoms are substituted by several glycidyl groups, in pharmaceutical compositions” (Henkel Kommanditgesellschaft auf Aktien, priority 1980, dated 1981).
